Test [1] has as its target FER (Homo sapiens, UniProt P16591). In words: In vitro binding assays.
Test [2] concerns the target JNK (Homo sapiens, UniProt P45983). In words: In vitro binding assays.
For test [3], the system named is HCT116 colon cancer cell line. In words: HCT116 cytotoxicity assay (WST-1, 72 hours). To be noted: Homo sapiens, HCT-116, read-out: IC50 (concentration resulting in a 50% reduction in cell viability), HCT116 cells. Format: cell-based. As for the experimental part:
The compounds of the invention were tested in the following cytotoxicity assay to detect anti-cancer activity. This assay determined viability of various cell lines, when treated with a test compound, by determining the metabolic activity of proliferating cells using the tetrazolium salt WST. While assays conducted with HCT116 colon cancer cell line cells were generally used to compare the relative efficacy of the compounds being tested, OVCAR8 and NCI/ADR-Res cell lines were also used according to the same procedure.
MATERIALS: • A. 10% FBS/L-glutamine/NEAA/HEPES/Na-Pyruvate/RPMI, phenol-free; • B. HCT116, OVCAR8 or NCI/ADR-Res cell lines (new vial thawed every 8-10 weeks); • C. Test compounds, typically 50 mM stocks diluted in DMSO; • D. Clear, flat, TC-surface bottomed 96-well microplates (Corning #3595); • E. WST-1: Dojindo, W201 (powder).
METHODS: • 1. […]
• b) Without removing culture medium, 0.4 μl of a 250× concentrated solution of test compound in growth media was added to HCT116, OVCAR8 or NCI/ADR-Res plates. Plates were returned to incubator and left to incubate for 72 hours. • c) 10 μL of prepared WST-1 was added to treated cells and allowed to incubate at 37° C. for 90 minutes. • d) Absorbances at 490 and 650 nm were read and viability of treated cells relative to DMSO control was determined.

For test [4], the target named is T1, JAK1 (Homo sapiens, UniProt P23458).
T1 construct: Cellular proteins were prepared by mild sonication in lysis buffer; endogenous in cells
In words: In vitro binding assays.

SMILES strings stand for the structures.

Chain of FER (P16591 whole entry, species assumed): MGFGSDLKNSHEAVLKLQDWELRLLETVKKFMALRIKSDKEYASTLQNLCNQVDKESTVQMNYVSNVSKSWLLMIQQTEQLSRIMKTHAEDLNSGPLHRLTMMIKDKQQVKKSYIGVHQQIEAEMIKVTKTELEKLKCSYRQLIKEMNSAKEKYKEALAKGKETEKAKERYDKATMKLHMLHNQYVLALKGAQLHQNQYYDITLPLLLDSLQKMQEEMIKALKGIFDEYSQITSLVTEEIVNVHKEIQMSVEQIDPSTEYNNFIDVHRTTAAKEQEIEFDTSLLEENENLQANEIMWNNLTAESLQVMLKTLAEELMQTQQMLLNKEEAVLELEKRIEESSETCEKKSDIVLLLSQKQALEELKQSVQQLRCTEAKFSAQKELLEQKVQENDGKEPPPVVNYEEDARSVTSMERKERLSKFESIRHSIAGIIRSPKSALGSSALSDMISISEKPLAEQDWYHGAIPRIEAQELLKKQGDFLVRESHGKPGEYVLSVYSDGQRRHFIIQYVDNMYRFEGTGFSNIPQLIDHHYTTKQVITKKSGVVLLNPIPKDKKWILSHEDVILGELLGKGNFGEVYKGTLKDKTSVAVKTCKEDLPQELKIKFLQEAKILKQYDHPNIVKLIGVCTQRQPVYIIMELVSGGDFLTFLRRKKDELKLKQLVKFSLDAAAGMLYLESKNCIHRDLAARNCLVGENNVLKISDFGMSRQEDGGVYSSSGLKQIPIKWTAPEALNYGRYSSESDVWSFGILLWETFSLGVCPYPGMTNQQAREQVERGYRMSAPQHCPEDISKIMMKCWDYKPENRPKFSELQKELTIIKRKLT
T1 sequence (P23458 whole entry, species assumed): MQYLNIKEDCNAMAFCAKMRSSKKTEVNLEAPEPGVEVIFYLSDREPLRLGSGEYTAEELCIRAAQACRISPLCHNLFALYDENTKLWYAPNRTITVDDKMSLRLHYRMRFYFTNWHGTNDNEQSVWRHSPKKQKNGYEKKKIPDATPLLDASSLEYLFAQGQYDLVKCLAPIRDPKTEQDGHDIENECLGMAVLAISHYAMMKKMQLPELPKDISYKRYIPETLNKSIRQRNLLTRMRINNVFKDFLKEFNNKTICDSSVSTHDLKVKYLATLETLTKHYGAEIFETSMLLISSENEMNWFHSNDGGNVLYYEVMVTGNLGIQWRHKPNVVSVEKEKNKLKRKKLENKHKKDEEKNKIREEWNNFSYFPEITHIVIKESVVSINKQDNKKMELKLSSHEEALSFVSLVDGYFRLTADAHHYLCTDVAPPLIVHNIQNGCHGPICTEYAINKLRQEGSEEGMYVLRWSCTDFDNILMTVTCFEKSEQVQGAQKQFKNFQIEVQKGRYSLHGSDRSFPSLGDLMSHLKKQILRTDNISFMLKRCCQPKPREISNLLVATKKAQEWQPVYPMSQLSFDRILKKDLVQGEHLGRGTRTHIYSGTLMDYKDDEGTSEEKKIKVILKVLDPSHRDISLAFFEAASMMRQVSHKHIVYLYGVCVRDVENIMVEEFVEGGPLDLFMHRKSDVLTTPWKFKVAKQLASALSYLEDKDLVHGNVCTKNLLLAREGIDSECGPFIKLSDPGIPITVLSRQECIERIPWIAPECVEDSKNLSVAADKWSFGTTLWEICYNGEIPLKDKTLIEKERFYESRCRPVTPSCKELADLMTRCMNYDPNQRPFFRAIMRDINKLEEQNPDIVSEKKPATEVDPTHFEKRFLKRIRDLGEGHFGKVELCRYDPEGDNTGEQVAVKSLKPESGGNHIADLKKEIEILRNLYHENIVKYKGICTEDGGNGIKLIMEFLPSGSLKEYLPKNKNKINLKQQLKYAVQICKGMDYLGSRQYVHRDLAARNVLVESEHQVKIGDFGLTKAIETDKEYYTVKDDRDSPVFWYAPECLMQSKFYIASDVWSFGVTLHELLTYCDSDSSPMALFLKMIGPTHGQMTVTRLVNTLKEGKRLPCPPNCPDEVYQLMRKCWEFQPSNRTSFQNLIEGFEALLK
Chain of JNK (P45983 whole entry): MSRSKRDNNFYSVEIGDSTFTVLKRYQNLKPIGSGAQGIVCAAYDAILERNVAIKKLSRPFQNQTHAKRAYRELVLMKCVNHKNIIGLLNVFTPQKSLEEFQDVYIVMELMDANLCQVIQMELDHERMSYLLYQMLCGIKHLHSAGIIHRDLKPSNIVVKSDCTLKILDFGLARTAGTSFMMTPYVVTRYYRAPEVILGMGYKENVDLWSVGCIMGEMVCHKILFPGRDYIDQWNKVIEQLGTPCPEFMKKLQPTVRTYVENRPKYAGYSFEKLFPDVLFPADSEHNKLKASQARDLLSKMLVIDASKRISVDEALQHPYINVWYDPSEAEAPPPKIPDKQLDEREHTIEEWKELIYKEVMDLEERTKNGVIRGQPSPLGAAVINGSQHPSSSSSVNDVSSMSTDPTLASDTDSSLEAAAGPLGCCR

Regarding `NCCCOc1ccc(Nc2nc(NC3CCCCC3)c3nc[nH]c3n2)cc1` [N2-[4-(3-aminopropoxy)phenyl]-N-6-cyclohexyl-9H-purine-2,6-diamine], the IC50 in test [1] was 15 nM; in test [2], 57 nM; in test [3] it was 1200 nM; in test [4] it was 320 nM.

Values taken from patent US20120122840A1, “COMPOUNDS AND THERAPEUTIC USES THEREOF” (Myrexis, Inc., priority 2009, published 2012).
